In PMC10794144, “A novel antibiotic class targeting the lipopolysaccharide transporter” (Nature, 2024):
In brackets after ≈: the same amount, converted by molar mass. Like-named read-outs stand apart in the source and are kept apart here.

Test system: A. baumannii
Test: MIC, broth microdilution in CAMHB supplemented with human serum, read at 100% growth inhibition
Assay type: cell-based, Acinetobacter baumannii
Procedure: MIC determinations were performed using the broth microdilution method and in line with CLSI guidelines M07 and M100 (refs. [37],[38]). Bacterial inocula were prepared by diluting a 0.5 McFarland suspension in CAMHB or lysogeny broth (LB) specifically for A. baylyi isolates. […] MIC values of all of the tested antibiotics were read as the lowest compound concentration inhibiting bacterial growth by naked eye or beyond which the OD600 ceased to decrease.

CN1C(=O)[C@H](CCCCN)NC(=O)[C@H](CCCN)NCc2cccnc2Sc2cccc(-c3ccc(C(=O)O)cc3)c2CNC(=O)[C@@H]1Cc1c[nH]c2ccccc12 [zosurabalpin]
MIC range (129 clinical isolates): ≤0.016 to 4 µg/mL
MIC (ACC01073, CAMHB + 20% HS): 2 µg/mL
MIC (Acinetobacter baumannii, ACC00445, CAMHB + 20% HS, read-out: MIC): 0.25 µg/mL
MIC (Acinetobacter baumannii, ACC00535, CAMHB + 20% HS, read-out: MIC): 0.12 µg/mL
MIC (Acinetobacter baumannii, ACC01073, CAMHB + 20% HS, read-out: MIC): 2 µg/mL
MIC (Acinetobacter baumannii, ACC01077, CAMHB + 20% HS, read-out: MIC): 0.25 µg/mL
MIC (Acinetobacter baumannii, ACC01085 / AR0307, CAMHB + 20% HS, read-out: MIC): 0.5 µg/mL
MIC (Acinetobacter baumannii, ATCC17978, ATCC 17978, CAMHB + 20% HS, read-out: MIC): 0.12 µg/mL
MIC (Acinetobacter baumannii, ATCC19606, ATCC 19606, CAMHB + 20% HS, read-out: MIC): 0.5 µg/mL
MIC (Acinetobacter baumannii, ATCCBAA747, ATCC BAA-747, CAMHB + 20% HS, read-out: MIC): ≤ 0.06 µg/mL
MIC (Acinetobacter baumannii, ROB08701, 129-isolate panel, 20% HS, read-out: MIC): 0.06 µg/mL (≈ 0.0759 µM)
MIC (Acinetobacter baumannii, ROB08701, CAMHB + 20% HS, read-out: MIC): ≤ 0.06 µg/mL
MIC (Acinetobacter baumannii, ROB08702, 129-isolate panel, 20% HS, read-out: MIC): 0.125 µg/mL (≈ 0.158 µM)
MIC (Acinetobacter baumannii, ROB08702, CAMHB + 20% HS, read-out: MIC): 0.12 µg/mL
MIC (Acinetobacter baumannii, ROB08703, 129-isolate panel, 20% HS, read-out: MIC): 0.5 µg/mL (≈ 0.632 µM)
MIC (Acinetobacter baumannii, ROB08703, CAMHB + 20% HS, read-out: MIC): 2 µg/mL
MIC (Acinetobacter baumannii, ROB08704, 129-isolate panel, 20% HS, read-out: MIC): 0.25 µg/mL (≈ 0.316 µM)
MIC (Acinetobacter baumannii, ROB08704, CAMHB + 20% HS, read-out: MIC): 0.25 µg/mL
MIC (Acinetobacter baumannii, ROB08705, 129-isolate panel, 20% HS, read-out: MIC): 0.06 µg/mL (≈ 0.0759 µM)
MIC (Acinetobacter baumannii, ROB08705, CAMHB + 20% HS, read-out: MIC): 0.25 µg/mL
MIC (Acinetobacter baumannii, ROB08706, 129-isolate panel, 20% HS, read-out: MIC): 0.125 µg/mL (≈ 0.158 µM)
MIC (Acinetobacter baumannii, ROB08706, CAMHB + 20% HS, read-out: MIC): 1 µg/mL
MIC (Acinetobacter baumannii, ROB08707, 129-isolate panel, 20% HS, read-out: MIC): 0.03 µg/mL (≈ 0.0379 µM)
MIC (Acinetobacter baumannii, ROB08707, CAMHB + 20% HS, read-out: MIC): ≤ 0.06 µg/mL
MIC (Acinetobacter baumannii, ROB08708, 129-isolate panel, 20% HS, read-out: MIC): 0.125 µg/mL (≈ 0.158 µM)
MIC (Acinetobacter baumannii, ROB08708, CAMHB + 20% HS, read-out: MIC): 0.25 µg/mL
MIC (Acinetobacter baumannii, ROB08709, 129-isolate panel, 20% HS, read-out: MIC): 0.03 µg/mL (≈ 0.0379 µM)
MIC (Acinetobacter baumannii, ROB08709, CAMHB + 20% HS, read-out: MIC): ≤ 0.06 µg/mL
MIC (Acinetobacter baumannii, ROB08710, 129-isolate panel, 20% HS, read-out: MIC): 0.125 µg/mL (≈ 0.158 µM)
MIC (Acinetobacter baumannii, ROB08710, CAMHB + 20% HS, read-out: MIC): 0.12 µg/mL
MIC (Acinetobacter baumannii, ROB08961 (LpxM NS), 20% HS, read-out: MIC): 4 µg/mL (≈ 5.06 µM)
MIC (Acinetobacter baumannii, ROB08979 (LptF R322L), 20% HS, read-out: MIC): 8 µg/mL (≈ 10.1 µM)
MIC (Acinetobacter baumannii, ROB08982 (lpxM ISAba1), 20% HS, read-out: MIC): 4 µg/mL (≈ 5.06 µM)
MIC (Acinetobacter baumannii, ROB08985 (LpxM NS), 20% HS, read-out: MIC): 4 µg/mL (≈ 5.06 µM)
MIC (Acinetobacter baumannii, ROB08997 (LptF I323K), 20% HS, read-out: MIC): 16 µg/mL (≈ 20.2 µM)
MIC (Acinetobacter baumannii, ROB08998 (AdeR A91V), 20% HS, read-out: MIC): 8 µg/mL (≈ 10.1 µM)
MIC (Acinetobacter baumannii, ROB09000 (lpxM ISAba1), 20% HS, read-out: MIC): 8 µg/mL (≈ 10.1 µM)
MIC (Acinetobacter baumannii, ROB21530 (LptF W271S), 20% HS, read-out: MIC): 16 µg/mL (≈ 20.2 µM)
MIC (Acinetobacter baumannii, ROB21531 (LptG G40D), 20% HS, read-out: MIC): 8 µg/mL (≈ 10.1 µM)
MIC (Acinetobacter baumannii, ROB21532 (LptF R322C), 20% HS, read-out: MIC): 64 µg/mL (≈ 80.9 µM)
MIC (Acinetobacter baumannii, ROB21533 (LptF I317L), 20% HS, read-out: MIC): 64 µg/mL (≈ 80.9 µM)
MIC (Acinetobacter baumannii, ROB23370 (adeS ISAba1), 20% HS, read-out: MIC): 4 µg/mL (≈ 5.06 µM)
MIC (Acinetobacter baumannii, ROB23371 (AdeS R152K), 20% HS, read-out: MIC): 4 µg/mL (≈ 5.06 µM)
MIC (Acinetobacter baumannii, ROB23373 (AdeS G318S), 20% HS, read-out: MIC): 2 µg/mL (≈ 2.53 µM)
MIC (Acinetobacter baumannii, ROB23377 (AdeS R108S), 20% HS, read-out: MIC): 1 µg/mL (≈ 1.26 µM)
MIC (Acinetobacter baumannii, ROB23380 (adeS ISAba1), 20% HS, read-out: MIC): 8 µg/mL (≈ 10.1 µM)
MIC (Acinetobacter baumannii, isolate 1061067, 20% HS, read-out: MIC): 0.25 µg/mL (≈ 0.316 µM)
MIC (Acinetobacter baumannii, isolate 1061145, 20% HS, read-out: MIC): 0.125 µg/mL (≈ 0.158 µM)
MIC (Acinetobacter baumannii, isolate 1065279, 20% HS, read-out: MIC): 0.25 µg/mL (≈ 0.316 µM)
MIC (Acinetobacter baumannii, isolate 1065391, 20% HS, read-out: MIC): 0.25 µg/mL (≈ 0.316 µM)
MIC (Acinetobacter baumannii, isolate 1065549, 20% HS, read-out: MIC): 0.06 µg/mL (≈ 0.0759 µM)
MIC (Acinetobacter baumannii, isolate 1069554, 20% HS, read-out: MIC): 0.06 µg/mL (≈ 0.0759 µM)
MIC (Acinetobacter baumannii, isolate 1072184, 20% HS, read-out: MIC): 0.25 µg/mL (≈ 0.316 µM)
MIC (Acinetobacter baumannii, isolate 1089062, 20% HS, read-out: MIC): 0.125 µg/mL (≈ 0.158 µM)
MIC (Acinetobacter baumannii, isolate 1089975, 20% HS, read-out: MIC): 0.125 µg/mL (≈ 0.158 µM)
MIC (Acinetobacter baumannii, isolate 1093170, 20% HS, read-out: MIC): 0.25 µg/mL (≈ 0.316 µM)
MIC (Acinetobacter baumannii, isolate 1098735, 20% HS, read-out: MIC): 1 µg/mL (≈ 1.26 µM)
MIC (Acinetobacter baumannii, isolate 1104059, 20% HS, read-out: MIC): 1 µg/mL (≈ 1.26 µM)
MIC (Acinetobacter baumannii, isolate 1104061, 20% HS, read-out: MIC): 0.25 µg/mL (≈ 0.316 µM)
MIC (Acinetobacter baumannii, isolate 1104062, 20% HS, read-out: MIC): 0.25 µg/mL (≈ 0.316 µM)
MIC (Acinetobacter baumannii, isolate 1115481, 20% HS, read-out: MIC): 0.06 µg/mL (≈ 0.0759 µM)
MIC (Acinetobacter baumannii, isolate 1115495, 20% HS, read-out: MIC): 0.5 µg/mL (≈ 0.632 µM)
MIC (Acinetobacter baumannii, isolate 1115510, 20% HS, read-out: MIC): 0.5 µg/mL (≈ 0.632 µM)
MIC (Acinetobacter baumannii, isolate 1115514, 20% HS, read-out: MIC): 0.25 µg/mL (≈ 0.316 µM)
MIC (Acinetobacter baumannii, isolate 1126813, 20% HS, read-out: MIC): 0.25 µg/mL (≈ 0.316 µM)
MIC (Acinetobacter baumannii, isolate 1140100, 20% HS, read-out: MIC): 0.06 µg/mL (≈ 0.0759 µM)
